The text below walks through data of patent US8895568B2, “Compositions comprising substituted pteridines as agrochemicals” (Dow AgroSciences LLC, priority 2009, dated 2014).

Format in all cases: in vivo
For experiment [1], the system named is Pseudoperonospora cubensis. The experiment can be described thus: Cucumber Downy Mildew (PSPECU), foliar spray, percent disease control. As to conditions: read-out: PSPECU percent control.
For experiment [2], the system named is DROSME, AEDSAE, LAPHEG, or HELIVI. Put plainly: Insecticidal activity, active if any of DROSME, AEDSAE, LAPHEG or HELIVI was controlled at 80% or more. Conditions: read-out: >80% mortality on any insect species @ 4000 ppm.
In experiment [3] the test system is Cochliobolus sativus. The experiment can be described thus: Spot Blotch of Wheat (COCHSA), foliar spray, percent disease control. As to conditions: Bipolaris sorokiniana, read-out: COCHSA percent control.
Experiment [4] concerns Colletotricum lagenarium. The experiment can be described thus: Cucumber Anthracnose (COLLLA), foliar spray, percent disease control.

Like-named read-outs stand apart in the source and are kept apart here. Bounds are passed on as bounds.

With `CCc1ncnc(Oc2ccc(CCNc3ncnc4nccnc34)cc2)c1Cl` [Compound 146], the pest or weed control at 200 µg/mL in experiment [1] (foliar) was in the range of 80 to 100%; in experiment [3] (foliar), 0 to 49%; in experiment [4] (foliar), 50 to 79%. In addition, the pest or weed control at 4000 ppm in experiment [2] is greater than 80%.

`Fc1cc(Oc2cc(C(F)(F)F)ccn2)ccc1CCNc1ncnc2nccnc12` [Compound 103]: the pest or weed control at 200 µg/mL was 80 to 100% in experiment [1] (foliar), 0 to 49% in experiment [3] (foliar) and 0 to 49% in experiment [4] (foliar). The pest or weed control at 4000 ppm in experiment [2] was greater than 80%.

For the molecule `CCOc1cccc(Oc2ccc(CCNc3ncnc4nccnc34)cc2)n1` [Compound 12, {2-[4-(6-Ethoxypyridin-2-yloxy)-phenyl]-ethyl}-pteridin-4-yl-amine], the pest or weed control at 200 µg/mL in experiment [1] (foliar) lay in the range of 80 to 100%; in experiment [3] (foliar), 0 to 49%; in experiment [4] (foliar), 0 to 49%. Besides, the pest or weed control at 4000 ppm in experiment [2] is greater than 80%.

As for `Cc1nc2ncnc(NCCc3ccc(Oc4ncccc4C(F)(F)F)cc3)c2nc1C` [Compound 200], the pest or weed control at 200 µg/mL in experiment [1] (foliar spray), in experiment [3] (foliar spray) and in experiment [4] (foliar spray) was 0 to 49% each time. In addition, in experiment [2], the pest or weed control at 4000 ppm is greater than 80%.

For `Cc1cnc2ncnc(NCCc3ccc(Oc4ncc(C(F)(F)F)cc4F)cc3)c2n1` [Compound 53], the pest or weed control at 200 µg/mL was 80 to 100% in experiment [1] (foliar), 0 to 49% in experiment [3] (foliar) and 80 to 100% in experiment [4] (foliar). The pest or weed control at 4000 ppm in experiment [2] was greater than 80%.

Turning to `c1ccc(-c2nnsc2Oc2ccc(CCNc3ncnc4nccnc34)cc2)cc1` [Compound 58], the figures for the pest or weed control at 200 µg/mL in experiment [1] (foliar), in experiment [3] (foliar) and in experiment [4] (foliar) were 50 to 79%, 0 to 49% and 0 to 49%, respectively. Further, in experiment [2], the pest or weed control at 4000 ppm is greater than 80%.

On to `N#Cc1cccc(Oc2ccc(CCNc3ncnc4nccnc34)cc2)n1` [Compound 13], for which the pest or weed control at 200 µg/mL was 80 to 100% in experiment [1] (foliar), 0 to 49% in experiment [3] (foliar) and 0 to 49% in experiment [4] (foliar). Also, the pest or weed control at 4000 ppm in experiment [2] is greater than 80%.

As to `FC(F)(F)c1ccc(Oc2ccc(CCNc3ncnc4nccnc34)cc2)nn1` [Compound 34], the pest or weed control at 200 µg/mL was in the range of 80 to 100% in experiment [1] (foliar), 0 to 49% in experiment [3] (foliar) and 0 to 49% in experiment [4] (foliar). In experiment [2], the pest or weed control at 4000 ppm was greater than 80%.

Consider `FC(F)(F)COc1ccc(CCNc2ncnc3nccnc23)cn1` [Compound 232], for which the figures for the pest or weed control at 200 µg/mL in experiment [1] (foliar spray), in experiment [3] (foliar spray) and in experiment [4] (foliar spray) were 80 to 100%, 0 to 49% and 50 to 79%, respectively. Moreover, the pest or weed control at 4000 ppm in experiment [2] is greater than 80%.

For the molecule `N#Cc1ccc(Oc2ccc(CCNc3ncnc4nccnc34)cc2)nc1` [Compound 14], the pest or weed control at 200 µg/mL in experiment [1] (foliar) was 80 to 100%; in experiment [3] (foliar), 0 to 49%; in experiment [4] (foliar), 0 to 49%. For the same molecule, the pest or weed control at 4000 ppm in experiment [2] is greater than 80%.

On to `Fc1cc(C(F)(F)F)cnc1Oc1ccc(CCNc2ncnc3nccnc23)cc1` [Compound 54], for which the pest or weed control at 200 µg/mL in experiment [1] (foliar) was in the range of 80 to 100%; in experiment [3] (foliar), 0 to 49%; in experiment [4] (foliar), 80 to 100%. Moreover, the pest or weed control at 4000 ppm in experiment [2] was greater than 80%.

Take `FC(F)(F)c1cccc(Oc2ccc(CCNc3ncnc4nccnc34)cc2)n1` [Compound 6]: the pest or weed control at 200 µg/mL in experiment [1] (foliar) lay within 80 to 100%; in experiment [3] (foliar), 0 to 49%; in experiment [4] (foliar), 0 to 49%. Besides, the pest or weed control at 4000 ppm in experiment [2] was greater than 80%.

Take `Cc1ccc(Oc2ccc(CCNc3ncnc4nccnc34)cc2)cc1` [Compound 136]: the results for the pest or weed control at 200 µg/mL in experiment [1] (foliar), in experiment [3] (foliar) and in experiment [4] (foliar) were 80 to 100%, 0 to 49% and 50 to 79%, respectively. In addition, the pest or weed control at 4000 ppm in experiment [2] was greater than 80%.

For the molecule `Cc1cc(CCNc2ncnc3nccnc23)ccc1Oc1ncc(C(F)(F)F)cc1F` [Compound 143], the figures for the pest or weed control at 200 µg/mL in experiment [1] (foliar), in experiment [3] (foliar) and in experiment [4] (foliar) were 80 to 100%, 0 to 49% and 0 to 49%, respectively. Moreover, in experiment [2], the pest or weed control at 4000 ppm was greater than 80%.

For the molecule `Cc1cc(CCNc2ncnc3nccnc23)ccc1Oc1c(F)cnc(C(F)(F)F)c1F` [Compound 166], the pest or weed control at 200 µg/mL in experiment [1] (foliar) lay in the range of 80 to 100%; in experiment [3] (foliar) it was 0 to 49%; in experiment [4] (foliar) it was 50 to 79%. Besides, the pest or weed control at 4000 ppm in experiment [2] was greater than 80%.

`Fc1cc(Oc2ncc(C(F)(F)F)cc2F)ccc1CCNc1ncnc2nccnc12` [Compound 114]: the results for the pest or weed control at 200 µg/mL in experiment [1] (foliar), in experiment [3] (foliar) and in experiment [4] (foliar) were 80 to 100%, 0 to 49% and 0 to 49%, respectively. Further, the pest or weed control at 4000 ppm in experiment [2] is greater than 80%.

In the case of `Cc1c(CCNc2ncnc3nccnc23)ccc(Oc2cc(C(F)(F)F)ccn2)c1C` [Compound 145], the pest or weed control at 200 µg/mL in experiment [1] (foliar) fell in the range of 80 to 100%; in experiment [3] (foliar) it was 0 to 49%; in experiment [4] (foliar), 50 to 79%. Besides, the pest or weed control at 4000 ppm in experiment [2] was greater than 80%.

Regarding `CC(Nc1ncnc2nccnc12)c1ccc(Oc2nccc(C(F)(F)F)n2)cc1` (stereo not drawn) [Compound 68], the pest or weed control at 200 µg/mL in experiment [1] (foliar) was 80 to 100%; in experiment [3] (foliar), 0 to 49%; in experiment [4] (foliar), 0 to 49%. Besides, the pest or weed control at 4000 ppm in experiment [2] was greater than 80%.

For `FC(F)(F)c1ccnc(Oc2ccc(CCNc3ncnc4nccnc34)cc2)c1` [Compound 2, pteridin-4-yl-{2-[4-(4-trifluoromethylpyridin-2-yloxy)-phenyl]-ethyl}-amine], the pest or weed control at 200 µg/mL in experiment [1] (foliar) lay in the range of 80 to 100%; in experiment [3] (foliar), 50 to 79%; in experiment [4] (foliar), 80 to 100%. Besides, in experiment [2], the pest or weed control at 4000 ppm is greater than 80%.

For `FC(F)(F)c1nc(Oc2ccc(CCNc3ncnc4nccnc34)cc2)sc1Cl` [Compound 128], the pest or weed control at 200 µg/mL in experiment [1] (foliar) fell in the range of 80 to 100%; in experiment [3] (foliar), 0 to 49%; in experiment [4] (foliar) it was 0 to 49%. The pest or weed control at 4000 ppm in experiment [2] is greater than 80%.

Turning to `CC(C)c1ccnc(Oc2ccc(CCNc3ncnc4nccnc34)cc2)c1` [Compound 203], the values for the pest or weed control at 200 µg/mL in experiment [1] (foliar spray), in experiment [3] (foliar spray) and in experiment [4] (foliar spray) were 80 to 100%, 0 to 49% and 50 to 79%, respectively. The pest or weed control at 4000 ppm in experiment [2] was greater than 80%.

Take `CC(Sc1ncnc2nccnc12)c1cccc(C(F)(F)F)c1` (stereo not drawn) [Compound 79]: the pest or weed control at 200 µg/mL in experiment [1] (foliar), in experiment [3] (foliar) and in experiment [4] (foliar) was 0 to 49% throughout. For the same molecule, the pest or weed control at 4000 ppm in experiment [2] is greater than 80%.

For the molecule `FC(F)(F)c1ccnc(Oc2ccc(CCNc3ncnc4nccnc34)cc2Cl)c1` [Compound 187], the pest or weed control at 200 µg/mL in experiment [1] (foliar) lay in the range of 80 to 100%; in experiment [3] (foliar), 0 to 49%; in experiment [4] (foliar), 80 to 100%. Moreover, in experiment [2], the pest or weed control at 4000 ppm was greater than 80%.

For `Fc1cc(Oc2ccc(CCNc3ncnc4nccnc34)cc2)c(F)cn1` [Compound 108], the pest or weed control at 200 µg/mL in experiment [1] (foliar) was 80 to 100%; in experiment [3] (foliar) it was 0 to 49%; in experiment [4] (foliar) it was 0 to 49%. Further, the pest or weed control at 4000 ppm in experiment [2] is greater than 80%.

For `CC1=CSc2cc(CCNc3ncnc4nccnc34)ccc2O1` [Compound 231], the pest or weed control at 200 µg/mL in experiment [1] (foliar spray), in experiment [3] (foliar spray) and in experiment [4] (foliar spray) was 0 to 49% in each case. The pest or weed control at 4000 ppm in experiment [2] is greater than 80%.

As to `Cc1cc(CCNc2ncnc3nccnc23)ccc1Oc1cc(C(C)(F)F)ccn1` [Compound 169], the pest or weed control at 200 µg/mL in experiment [1] (foliar) lay within 80 to 100%; in experiment [3] (foliar), 0 to 49%; in experiment [4] (foliar) it was 50 to 79%. Besides, the pest or weed control at 4000 ppm in experiment [2] was greater than 80%.

Consider `Fc1cc(CCNc2ncnc3nccnc23)ccc1Oc1cc(C(F)(F)F)ccn1` [Compound 93], for which the pest or weed control at 200 µg/mL in experiment [1] (foliar) was in the range of 80 to 100%; in experiment [3] (foliar), 50 to 79%; in experiment [4] (foliar), 80 to 100%. Further, in experiment [2], the pest or weed control at 4000 ppm was greater than 80%.

Take `Ic1ccnc(Oc2ccc(CCNc3ncnc4nccnc34)cc2)c1` [Compound 36, N-(2-{4-[(4-iodopyridin-2-yl)oxy]phenyl}ethyl)pteridin-4-amine]: the values for the pest or weed control at 200 µg/mL in experiment [1] (foliar), in experiment [3] (foliar) and in experiment [4] (foliar) were 80 to 100%, 50 to 79% and 50 to 79%, respectively. Further, the pest or weed control at 4000 ppm in experiment [2] was greater than 80%.

As for `FC(F)(F)c1ccc(Oc2ccc(CCNc3ncnc4nccnc34)cn2)cc1` [Compound 126], the pest or weed control at 200 µg/mL in experiment [1] (foliar) fell in the range of 80 to 100%; in experiment [3] (foliar) it was 0 to 49%; in experiment [4] (foliar) it was 80 to 100%. Further, in experiment [2], the pest or weed control at 4000 ppm is greater than 80%.

On to `COc1cc(CCNc2ncnc3nccnc23)ccc1Oc1nccc(C(F)(F)F)n1` [Compound 97], for which the pest or weed control at 200 µg/mL in experiment [1] (foliar) was in the range of 80 to 100%; in experiment [3] (foliar), 0 to 49%; in experiment [4] (foliar), 0 to 49%. In addition, in experiment [2], the pest or weed control at 4000 ppm is greater than 80%.

As for `Cc1ccc(Oc2ccc(CCNc3ncnc4nccnc34)cc2)nc1` [Compound 40], the pest or weed control at 200 µg/mL in experiment [1] (foliar) is 80 to 100%; in experiment [3] (foliar) it was 0 to 49%; in experiment [4] (foliar), 50 to 79%. The pest or weed control at 4000 ppm in experiment [2] was greater than 80%.

On to `Cc1cc(CCNc2ncnc3nccnc23)ccc1Oc1ccc(C(F)(F)F)cn1` [Compound 141], for which the pest or weed control at 200 µg/mL in experiment [1] (foliar) lay in the range of 80 to 100%; in experiment [3] (foliar), 0 to 49%; in experiment [4] (foliar) it was 50 to 79%. Further, in experiment [2], the pest or weed control at 4000 ppm is greater than 80%.

Consider `Cc1nc(NCCc2ccc(Oc3cc(C(F)(F)F)ccn3)cc2)c2nc(C)c(C)nc2n1` [Compound 215], for which the pest or weed control at 200 µg/mL in experiment [1] (foliar spray) was in the range of 80 to 100%; in experiment [3] (foliar spray), 0 to 49%; in experiment [4] (foliar spray) it was 0 to 49%. Besides, the pest or weed control at 4000 ppm in experiment [2] was greater than 80%.
